Entries after “also recorded” stand apart in the source; their conditions may differ.
Tests used:
EcoRI [1] = target: T1, EcoRI (Escherichia coli, UniProt P00642); test: Peptide inhibitor assay (PIA): EcoRI digestion of pCRII-TOPO-OR23 plasmid, fluorescence intensity of the excised OR23 band on agarose gel; type: biochemical; settings: 3 h; for level of inhibitory effect on EcoRI (in words): EcoRI:peptide 1:500, relative fluorescence intensity, n = 3
T1 construct: The first M is removed after translation in this protein; purchased New England Biolabs
Protocol: Peptide synthesis was performed by GenScript Japan (Tokyo, Japan). All peptides were confirmed to be more than 75% pure via high-performance liquid chromatography (HPLC) and to have theoretical molecular weights via mass spectrometry (MS). The peptides were dissolved in DMSO (dimethyl sulfoxide) and were prepared at 5.59 × 10^−9 mol/μL (5.59 mM). When 1.0 μL of this peptide mixture was mixed in a tube for the inhibition of EcoRI catalytic activity, the molar ratio of EcoRI to peptide was 1:500. This concentration in molar equivalence was used throughout this study unless otherwise noted.
Purified and concentrated EcoRI (20,000 U/mL, approximately 338 μg/mL, 1.12 × 10^−[…]) was obtained from New England Biolabs (Ipswich, MA, USA). To quantify and visualize the inhibitory effects of the peptides, the enzymatic reaction conditions were set so that at least three hours of incubation were required to completely digest the substrate plasmid DNA with EcoRI. To do so, we used a low Mg^2+ concentration (0.015 mM) in the reaction mixture in contrast to the optimum concentration of Mg^2+ for EcoRI (10 mM).
(§1) All master solutions and samples were prepared on ice. A single reaction tube contained the following common ingredients: autoclaved DNase-free RNase-free deionized H2O (12.5 μL) (Nippon Gene), 10× NE Buffer Mg^2+-free (2.0 μL), pCRII-TOPO-OR23 plasmid DNA (2.0 μL of 40 ng/μL solution), MgCl2 (1.5 μL of 0.20 mM solution), and EcoRI (1.0 μL). A master solution containing these ingredients without DMSO or a peptide was first prepared for the number of sample tubes. The master solution was aliquoted into 1.5 mL spin tubes (19.0 μL per tube). Then, 1.0 μL of DMSO or a peptide sample was added, and the mixture was incubated at 37 °C. A negative control with DMSO but without a peptide (“no peptide” control) was run in every assay. When the digestion efficiency was compared, another negative control with autoclaved DNase-free RNase-free H2O without EcoRI was prepared. After the reaction, the samples were quickly cooled on ice for ten minutes and then stored at −80 °C until agarose gel electrophoresis. The above protocol was conducted for all peptides (including BP19.5, BP19.5N, and BP19.5C) used in the present study unless otherwise noted.
To quantify EcoRI activity after incubation of a reaction mixture, digested pCRII-TOPO-OR23 plasmid DNA was examined via agarose gel electrophoresis. We first prepared a 25 mL solution of 1.0% agarose (Nippon Gene) in TAE (Tris-acetate-EDTA) buffer (Promega, Madison, WI, USA) to produce an agarose gel. An ethidium bromide solution (0.5 μL of 10 mg/mL) (Promega) was added before gelation. After incubation with EcoRI, the fluorescence intensity of the band of the excised OR23 fragment was measured via an ImageQuant LAS4000 (GE Healthcare Japan, Tokyo, Japan) with the following conditions: “Exposure Type”: Precision; “Exposure Time”: Manual 1/8 sec; “Sensitivity/Resolution”: Standard; and “Fluorescent Method”: Epi illumination; EtBr; UV (Trans UV) light; 6-5DF50 Filter; and F2.8 Iris.
For statistical analyses, Student’s t-test (unpaired and bi-sided), Dunnett’s test, and Pearson correlation analysis were performed via Microsoft Excel (Office 365) and JSTAT (Yokohama, Japan). The Dunnett’s test was performed for each experimental group that was examined simultaneously in the laboratory, in comparison to the “no peptide” control group that was examined simultaneously. The repeated measure mode of the Dunnett’s test was used on the assumption that there was no interaction between samples.

EcoRI [2] = target: T1, EcoRI; test: Nonspecific nuclease activity of EcoRI reaction mixture with peptide (plasmid DNA degradation); type: biochemical; settings: EcoRI plus peptide 1:500, 3 h, n = 3
Protocol: A recombinant plasmid, pCRII-TOPO (Invitrogen, Waltham, MA, USA), containing a PCR fragment of the full-length cDNA (978 bp) of the mouse odorant receptor OR23 [82, 83, 84, 85, 86] at the EcoRI cloning site (GAATTC) was used as a DNA substrate for EcoRI. […] This pCRII-TOPO-OR23 plasmid was prepared from TOP10F’ Escherichia coli (Invitrogen) using ATP Plasmid Mini Kit (ATP Biotech, Taipei, ROC). The plasmid solution was prepared at 40 ng/μL by adding autoclaved DNase-free RNase-free deionized H2O (Nippon Gene, Tokyo, Japan). The DNA concentrations were measured with a Qubit fluorometer (Invitrogen).
as §1
This reaction mixture containing EcoRI and BP19.5 appeared to degrade the plasmid DNA entirely. […] The DNA concentration at 3 h was 3.297 ± 0.006 ng/μL without any peptide in the reaction mixture and 0.332 ± 0.003 ng/μL with BP19.5, indicating a statistically significant difference (n = 3; unpaired bi-sided Student’s t-test; p = 1.6 × 10^−11). […] Therefore, BP19.5 and its derivatives are likely to cause EcoRI to become a nonspecific nuclease. In other words, BP19.5 was likely a specificity/activity modifier of EcoRI instead of an inhibitor.

T1 sequence (P00642 2-277): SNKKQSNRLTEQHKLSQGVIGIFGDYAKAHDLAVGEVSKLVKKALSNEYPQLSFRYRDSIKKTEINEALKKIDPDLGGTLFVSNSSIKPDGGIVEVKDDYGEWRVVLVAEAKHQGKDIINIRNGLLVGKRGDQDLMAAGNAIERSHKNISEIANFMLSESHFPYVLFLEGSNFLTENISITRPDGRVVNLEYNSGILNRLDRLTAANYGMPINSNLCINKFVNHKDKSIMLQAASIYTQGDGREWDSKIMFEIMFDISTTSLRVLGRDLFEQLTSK

Substance	level of inhibitory effect on EcoRI (in words) (EcoRI [1])	plasmid DNA degradation / nonspecific nuclease induction (agarose gel electrophoresis, in words) (EcoRI [2])	relative fluorescence intensity of excised OR23 fragment (EcoRI [1]; relative to no peptide, EcoRI:peptide 1:500 molar ratio, 37 °C, 0.015 mM Mg2+, mean of n = 3)	DNA concentration at 3 h in the reaction mixture (EcoRI [2]; no peptide 3.297 ± 0.006) [ng/µL]
AANYGMPINSNL [BP19]	did not show high inhibition	did not have such an induction ability		
NLCINK [BP19.5C, deletion peptide from BP19.5]		no DNA was detected; also recorded: induced such nuclease activity		
NLCINKFVNHKDK [BP20]	especially notable; also recorded: strong inhibitory effect; also recorded: most effective	does not induce nuclease activity	less than 0.3	
PINSNL [BP19.5N, deletion peptide from BP19.5]		no DNA was detected; also recorded: induced such nuclease activity		
PINSNLCINK [BP19.5]		no DNA fragment or plasmid DNA was detected		0.332 ± 0.003
